Test results published in patent US8071810B2, “C5a receptor antagonists” (Jerini AG, priority 2005, dated 2011).
pIC50: −log10 of the molar value. Values after ≈ are worked out from the molar mass of the structure shown.

Columns and labels:
[1] = Stability (shelf life) as solid TFA salt, RP-HPLC (Example 25); assay type: physicochemical; details: light, room temperature, up to 7 days
Procedure: The fractions containing the desired compound are lyophilized. In this way 1-40 mg of the compounds 11 and 13 are isolated as solid. Due to the basic amino groups the compounds are obtained as TFA salts. 0.5-10 mg of the solid are stored under the influence of light at room temperature to determine their stability over time.
The conditions were as follows:
FIG. 1 A): after purification via HPLC (solution in MeCN/H2O/TFA),
FIG. 1 B) after lyophilization (0 days of storage as solid)
FIG. 1 C) after 7 days of storage as solid

C5a receptor [2] = target: T1, C5a receptor (Homo sapiens, UniProt P21730); details: cited from earlier work
T1 sequence (P21730 1-350): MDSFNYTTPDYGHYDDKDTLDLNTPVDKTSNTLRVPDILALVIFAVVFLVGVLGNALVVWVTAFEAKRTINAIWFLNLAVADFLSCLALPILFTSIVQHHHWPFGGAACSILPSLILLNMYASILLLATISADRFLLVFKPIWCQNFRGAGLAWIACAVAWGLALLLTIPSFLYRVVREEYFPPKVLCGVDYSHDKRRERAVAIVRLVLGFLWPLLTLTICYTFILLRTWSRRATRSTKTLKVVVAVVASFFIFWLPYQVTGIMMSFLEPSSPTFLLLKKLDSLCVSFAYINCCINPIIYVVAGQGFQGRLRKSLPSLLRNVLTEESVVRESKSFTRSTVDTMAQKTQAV

[3] = target: T2, human C5a receptor (CD88) (Homo sapiens, UniProt P21730); experiment: C5a induced enzyme (glucosaminidase) release assay in RBL cells expressing the human C5a receptor (Example 28); assay type: cell-based; details: inhibition of C5a induced enzyme release, RBL cells with human C5aR; read-out: Activity-range (antagonistic activity, IC50 enzyme release)
T2 construct: expressed in transfected cells; host or cells: rat basophilic leukemia (RBL) cells, stably transfected
T2 sequence (P21730 1-350): T1 sequence (P21730 1-350)
Outline: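 Rat basophilic leukemia (RBL) cells expressing human C5a receptor, at 2×10^6 cells/ml, primed with cytochalasin B, then incubated with test compound 10 min at 37 °C.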

C5a induced neutropenia = C5a induced neutropenia in gerbils (Example 35); assay type: in vivo, gerbils (Meriones unguiculatus); details: gerbil
From the text: C5a induced neutropenia is a model for shock induced diseases (e.g. septic shock), where amongst others the systemic role of C5a (blood pressure decrease, neutropenia) plays an important role. The reason for the decrease of the neutrophils in the circulation is their binding to the vessel walls due to the C5a stimulus. These processes of neutrophil recruitment are playing an important role in many other diseases like reperfusion injury. […]
Male gerbils (Meriones unguiculatus) are anaesthesized i.p. with ketamine (80 mg/kg) and xylazine (12 mg/kg). The animals are intubated and a catheter is inserted in the jugular vene and the animals are subjected to the following procedure:
1. The gerbils are pre-treated with vehicle or the compounds of the present invention 80 (3 mg/kg) or 131 (1 mg/kg) via i.v. infusion.
One minute before compound treatment a blood sample is taken.
2. 10 minutes after the infusion of the compounds the gerbils are treated i.v. with 100 μg/kg hrC5a. […]
White blood cell counts are measured with a haematology-cell-counter. […]
The differential cell count is determined as the sum of neutrophils, eosinophile, easophile, lymphocytes and monocytes from 100 cells. Then, the percentage of neutrophils in relation to all white blood cells is determined. […]

[4] = Solubility in aqueous HEPES buffer by HPLC (Example 33); assay type: physicochemical; details: kinetic from dmso stock
Procedure: To determine the solubility the compound to be measured is dissolved (e.g, […] of a 5 mM solution in DMSO) in organic solvent (e.g. 198 μl DMSO) as well as in aqueous buffer solution (e.g. 198 μl HEPES buffer). Both solutions are analyzed via analytical HPLC and the areas under the peaks are compared. The value for the organic solution is taken as 100%.

C5a receptor [5] = target: T1, C5a receptor; details: cited from earlier work; remark: listed apart in the source
C5a receptor [6] = target: T1, C5a receptor; details: cited from earlier work; remark: listed apart in the source

Compound: CC(C)c1ccc(N(Cc2ccc(N(C)C)cc2)C(=O)Nc2c(C(C)C)cccc2C(C)C)cc1 [Compound 11, 3-(2,6-diisopropyl-phenyl)-1-(4-dimethylamino-benzyl)-1-(4-isopropyl-phenyl)-urea, reference compound]
- Stability on storage as solid [1]: not stable
- binding affinity to the C5a receptor (C5a receptor [2]): 100 nM
- pIC50 [3]: 5.30 to 6.70

Compound: CCc1c(N)cc(Cl)c(CC)c1NC(=O)N(c1ccc(NC)cc1)[C@@H](C)c1ccc(Cl)cc1 [compound 131, (S)-3-(3-amino-5-chloro-2,6-diethyl-phenyl)-1-[1-(4-chloro-phenyl)-ethyl]-1-(4-methylamino-phenyl)-urea]
- Effect on C5a induced neutropenia (C5a induced neutropenia; 1 mg/kg i.v. infusion 10 min before 100 μg/kg hrC5a): significantly reduces C5a induced neutropenia

Compound: CCc1ccc(N(C(=O)Nc2c(CC)c(N)cc(Cl)c2CC)[C@@H](C)c2ccc(Cl)cc2)cc1 [compound 80, (S)-3-(3-amino-5-chloro-2,6-diethyl-phenyl)-1-[1-(4-chlor-phenyl)-ethyl]-1-(4-ethyl-phenyl)-urea]
- Effect on C5a induced neutropenia (C5a induced neutropenia; 3 mg/kg i.v. infusion 10 min before 100 μg/kg hrC5a): significantly reduces C5a induced neutropenia
- pIC50 [3]: > 7.22
- solubility [4]: 4 µM (≈ 1.94 µg/mL)

Compound: CCc1c(N)cc(Cl)c(CC)c1NC(=O)N(Cc1ccc(OC)cc1)c1ccc(C(C)C)cc1 [compound 13]
- Stability on storage as solid [1]: does not show such instabilities

Compound: CC(C)Cc1ccc([C@@H](C)C(=O)NCCC[N+]2(C)CCCCC2)cc1.[I-] [Compound 6]
- activity in a chemotaxis assay (C5a receptor [5]): 24 µM

Compound: NC(N)=Nc1ccc(OCCc2ccccc2)c(-c2ccccc2)c1 [Compound 5]
- activity (C5a receptor [6]): 0.8 µM
